# In patent publication US9962331B2, “Composition containing horse chestnut extract” (priority 2001, dated 2018):
# Where two headings read alike, the source gives them in different places.
# Test system: human umbilical vein endothelial cells (HUVECs)
# Test: Tube formation assay of HUVEC on Matrigel
# Assay type: cell-based
# Details: for formation of microvascular network of HUVEC (pictures): FIGS. 6-9; for inhibition at 50 µM: Homo sapiens, read-out: Percent Inhibition
# Protocol: In order to do the tube formation assay, blood vessel endothelial cells, human umbilical vein endothelial cells (HUVECs), were isolated from freshly obtained cords after cesarean section according to Grant's method (Grants D S, et al., Cell, 58, pp933-943, 1989). They were identified by immunocytochemial staining with anti-Factor VIII antibody. HUVECs grown with Matrigel (BD Bioscience, Bedford, Mass., USA), were treated with the above Horse chestnut extract of the Example 1, and further incubated at 37° C. for 8-16 hrs. As a control, above procedure was repeated without Horse chestnut extract.
# In order to identify the component responsible for anti-aniogenic acvity of Horse chestnut extract, components identified as in EXAMPLE 2, were subjected to the tube formation assay as described above. Since those chemicals are not soluble in water, they were dissolved in dimethyl sulfoxide (DMSO). In order to exclude the effect of solvent, HUVECs treated with the same amount of DMSO were used as a control. FIG. 5 is a picture of the 1% DMSO-treated HUVEC control, and FIGS. 6-9 are pictures showing the effect of individual components of the Horse chestnut on tube formation. […] Tubular network was disconnected by treatment with 50 μM of quercitrin, and esculetin.
# The area of the tube was determined by image analysis program Image-Pro Plus® (Media Cybernetics, USA), and the results were summarized in Tables 1 and 2. […]
# [1] = HUVEC tube formation, 50 μM, vs 1% DMSO control
# [2] = HUVEC, 50 μM, vs 1% DMSO control
compound,measurement,setting,value
aescin,formation of microvascular network of HUVEC (pictures),50 μM,completely inhibited
same,Percent Inhibition,[1],100
same,Area of the Tube (%),[2],0%
"C[C@@H]1O[C@@H](Oc2c(-c3ccc(O)c(O)c3)oc3cc(O)cc(O)c3c2=O)[C@H](O)[C@H](O)[C@H]1O [Quercitrin, quercitrin]",Area of the Tube (%),[2],36%
same,inhibition at 50 µM,HUVEC,64%
"O=c1ccc2cc(O[C@@H]3O[C@H](CO)[C@@H](O)[C@H](O)[C@H]3O)c(O)cc2o1 [Esculin, esculin]",formation of microvascular network of HUVEC (pictures),50 μM,less than that by esculetin
same,Area of the Tube (%),[2],85%
same,inhibition at 50 µM,HUVEC,15%
"O=c1ccc2cc(O)c(O)cc2o1 [Esculetin, esculetin]",formation of microvascular network of HUVEC (pictures),50 μM,disconnected
same,Area of the Tube (%),[2],17%
same,inhibition at 50 µM,[1],83%
